Assay results from US8956999B2, “Herbicides” (Syngenta Limited, priority 2007, dated 2015).

What was measured:
Assay type in all cases: in vivo
Setaria faberi (SETFA) [1] = experiment: Example B pre-emergence herbicidal test, glasshouse; details: Setaria faberi, 312 h, rate 250 g/ha, evaluated after 13 days, 100=total damage to plant, 0=no damage to plant, read-out: Pre-Emergence Activity SEFTA
Protocol: (§1) Seeds of a variety of test species were sown in standard soil in pots. After cultivation for one day (pre-emergence) or after 8 days cultivation (post-emergence) under controlled conditions in a glasshouse (at 24/16° C., day/night; 14 hours light; 65% humidity), the plants were sprayed with an aqueous spray solution derived from the formulation of the technical active ingredient in acetone/water (50:50) solution containing 0.5% Tween 20 (polyoxyethelyene sorbitan monolaurate, CAS RN 9005-64-5). The test plants were then grown in a glasshouse under controlled conditions in a glasshouse (at 24/16° C., day/night; 14 hours light; 65% humidity) and watered twice daily. After 13 days for pre and post-emergence, the test was evaluated (100=total damage to plant; 0=no damage to plant). Test Plants: Alopecurus myosuroides (ALOMY), Avena fatua (AVEFA), Setaria faberi (SETFA), Echinochloa crus-galli (ECHCG), Solanum nigrum (SOLNI) and Amaranthus retoflexus (AMARE)

[2] = test system: Amaranthus retoflexus (AMARE); experiment: as above; details: Amaranthus retroflexus, 312 h, rate 250 g/ha, evaluated after 13 days, 100=total damage to plant, 0=no damage to plant
Protocol: as §1

Avena fatua (AVEFA) [3] = experiment: as above; details: 312 h, rate 250 g/ha, evaluated after 13 days, 100=total damage to plant, 0=no damage to plant
Protocol: as §1

[4] = test system: Echinochloa crus-galli (ECHCG); experiment: as above; details: Echinochloa crus-galli, 312 h, rate 250 g/ha, evaluated after 13 days, 100=total damage to plant, 0=no damage to plant, read-out: Pre-Emergence Activity ECHGG
Protocol: as §1

[5] = test system: Alopecurus myosuroides (ALOMY); experiment: as above; details: 312 h, rate 250 g/ha, evaluated after 13 days, 100=total damage to plant, 0=no damage to plant
Protocol: as §1

Setaria faberi (SETFA) [6] = experiment: Example B post-emergence herbicidal test, glasshouse; details: 312 h, rate 250 g/ha, evaluated after 13 days, read-out: Post-Emergence Activity SEFTA (100=total damage to plant; 0=no damage to plant)
Protocol: as §1

[7] = test system: Amaranthus retoflexus (AMARE); experiment: as above; details: Amaranthus retroflexus, 312 h, rate 250 g/ha, evaluated after 13 days, read-out: Post-Emergence Activity AMARE (100=total damage to plant; 0=no damage to plant)
Protocol: as §1

Avena fatua (AVEFA) [8] = experiment: as above; details: 312 h, rate 250 g/ha, evaluated after 13 days, read-out: Post-Emergence Activity AVEFA (100=total damage to plant; 0=no damage to plant)
Protocol: as §1

[9] = test system: Echinochloa crus-galli (ECHCG); experiment: as above; details: 312 h, rate 250 g/ha, evaluated after 13 days, read-out: Post-Emergence Activity ECHGG (100=total damage to plant; 0=no damage to plant)
Protocol: as §1

[10] = test system: Alopecurus myosuroides (ALOMY); experiment: as above; details: 312 h, rate 250 g/ha, evaluated after 13 days, read-out: Post-Emergence Activity ALOMY (100=total damage to plant; 0=no damage to plant)
Protocol: as §1

Row | SMILES | pest or weed control at 250 g/ha (Setaria faberi (SETFA) [1]) | pest or weed control at 250 g/ha [2] | pest or weed control at 250 g/ha (Avena fatua (AVEFA) [3]) | pest or weed control at 250 g/ha [4] | pest or weed control at 250 g/ha [5] | pest or weed control at 250 g/ha (Setaria faberi (SETFA) [6]) | pest or weed control at 250 g/ha [7] | pest or weed control at 250 g/ha (Avena fatua (AVEFA) [8]) | pest or weed control at 250 g/ha [9] | pest or weed control at 250 g/ha [10]
1 | CC(=O)OC1=C(c2nc(-c3ccc(Br)cn3)sc2C)C(=O)C(C)(C)OC1(C)C [Compound P3] | 20% | 0% | 0% | 30% | 20% | 90% | 0% | 30% | 90% | 50%
2 | Cc1sc(-c2ccc(Br)cn2)nc1C1=C(OC(=O)C2CC2)C(C)(C)OC(C)(C)C1=O [Compound P4] | 20% | 0% | 0% | 10% | 0% | 90% | 0% | 0% | 90% | 40%
3 | Cc1sc(-c2ccc(Br)cn2)nc1C1=C(OC(=O)C(C)(C)C)C(C)(C)OC(C)(C)C1=O [Compound P5] | 0% | 0% | 0% | 0% | 0% | 0% | 0% | 0% | 0% | 0%
4 | CC(=O)OC1=C(c2nc(-c3ccc(Br)cc3C)sc2C)C(=O)C(C)(C)OC1(C)C [Compound P6] | 100% | 0% | 80% | 70% | 90% | 100% | 0% | 90% | 100% | 100%
5 | Cc1cc(Br)ccc1-c1nc(C2=C(OC(=O)C3CC3)C(C)(C)OC(C)(C)C2=O)c(C)s1 [Compound P7] | 100% | 0% | 0% | 80% | 70% | 100% | 0% | 80% | 100% | 80%
6 | CC(=O)OC1=C(c2sc(-c3ccc(Cl)cc3)nc2C)C(=O)C(C)(C)OC1(C)C [Compound P9] | 40% | 0% | 0% | 50% | 20% | 80% | 30% | 80% | 100% | 90%
7 | Cc1sc(-c2ccc(Cl)cc2)cc1C1C(=O)C(C)(C)C(=O)C(C)(C)C1=O [Compound T5] |  |  |  |  |  | 50% | 0% | 0% | 70% | 40%
8 | Cc1sc(-c2ccc(Cl)cc2F)nc1C1C(=O)C(C)(C)C(=O)C(C)(C)C1=O [Compound T9] | 40% | 0% | 0% | 20% | 0% | 80% | 0% | 40% | 90% | 90%
9 | Cc1sc(-c2ccc(Cl)cc2F)nc1C1C(=O)C(C)(C)OC(C)(C)C1=O [Compound T21] | 100% | 0% | 0% | 100% | 60% | 100% | 0% | 90% | 100% | 100%
10 | Cc1sc(-c2ccc(Cl)c(F)c2)nc1C1C(=O)C(C)(C)OC(C)(C)C1=O [Compound T22] | 100% | 0% | 20% | 90% | 70% | 100% | 0% | 90% | 100% | 100%
